Test results published in patent publication US10782295B2, “Cysteine-reactive ligand discovery in proteomes” (THE SCRIPPS RESEARCH INSTITUTE, priority 2013, dated 2020).

Columns and labels:
Assay in all cases: competitive isoTOP-ABPP, MDA-MB-231 soluble proteome
Assay type in all cases: binding
[1] = target: T1, CCT8 (Homo sapiens, UniProt P50990); details: 100 μM LDE, 60 min; peptide IAVYSC*PFDGMITETK
T1 construct: directly in native proteomes; endogenous in cells; host or cells: MDA-MB-231
T1 sequence (P50990 1-548): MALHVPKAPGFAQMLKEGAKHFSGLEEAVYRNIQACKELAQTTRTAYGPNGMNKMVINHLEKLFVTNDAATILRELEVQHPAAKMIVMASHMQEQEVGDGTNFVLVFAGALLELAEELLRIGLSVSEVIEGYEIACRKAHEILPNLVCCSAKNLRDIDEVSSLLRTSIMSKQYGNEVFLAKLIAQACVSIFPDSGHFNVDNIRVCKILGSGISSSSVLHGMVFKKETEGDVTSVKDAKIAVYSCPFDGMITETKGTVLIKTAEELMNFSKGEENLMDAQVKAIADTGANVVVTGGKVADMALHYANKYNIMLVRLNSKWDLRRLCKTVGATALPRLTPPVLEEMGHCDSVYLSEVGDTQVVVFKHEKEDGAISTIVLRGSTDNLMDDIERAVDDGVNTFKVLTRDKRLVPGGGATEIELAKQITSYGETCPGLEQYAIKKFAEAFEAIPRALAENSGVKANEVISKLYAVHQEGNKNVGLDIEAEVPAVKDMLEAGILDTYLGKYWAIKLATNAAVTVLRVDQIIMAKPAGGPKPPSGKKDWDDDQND
Description: (§1) Here, we envisioned that isoTOP-ABPP could be advanced to discover and quantify reactions between cysteines in proteomes and any electrophilic compound. In this advanced, ‘competitive’ version of isoTOP-ABPP (FIG. 1a), a proteome is treated with an electrophile (experimental sample) or DMSO (control sample). Both proteomic samples are then labeled with the IA probe and conjugated by CuAAC to light and heavy azide-biotin tags, respectively. The light and heavy samples are then mixed and subjected to our described isoTOP-ABPP protocol for enrichment, identification, and quantification of IA-labeled cysteines^30. Electrophile-modified cysteines are quantified by measuring the MS1 chromatographic peak ratios (R values) for heavy (DMSO-treated) over light (electrophile-treated) samples, with higher R values reflecting greater sensitivity to the electrophile. In this format, competitive isoTOP-ABPP can assay electrophiles against 1000+ cysteines in parallel directly in native proteomes without requiring any chemical modification to the electrophiles themselves.
(§2) Competitive isoTOP-ABPP experiments were performed in quadruplicate using the soluble proteome of the human breast cancer cell line MDA-MB-231 cell line. Proteomes were treated with 100 μM HNE, 15d-PGJ2, or 2-HD, for 60 minutes, followed by the IA-probe (100 μM, 60 min) A total of ˜1400 cysteine reactivities were quantified across the aggregate data set, with at least 900 cysteine reactivities quantified for each LDE (FIG. 2a) more than 750 of which were quantified for all the three electrophiles.
(§3) HNE was purchased from EMD biosciences, 15d-PGJ2 was purchased from Cayman Chemicals and 2-HD was purchased from Santa Cruz Biotechnology. Proteome samples were diluted to a 4 mg protein/mL solution in PBS. For each profiling experiment, one aliquot of the proteome sample (0.5 mL) was treated with 100 μM of LDE using 5 μL of a 10 mM stock and the other aliquot was treated with 5 μL of either ethanol (for HNE and 15d-PGJ2) or DMSO (for 2-HD) as control. For the concentration-dependent profiling experiments using HNE, aliquots of the proteomes (0.5 mL each) were treated with 5, 10, 50, 100 and 500 μM of HNE using 5 μL of 0.5, 1.0, 5, 10 and 50 mM of stock solution, respectively. After 60 minutes of treatment at room temperature, both the LDE-treated and control aliquots were passed through a NAP-5 Sephadex column (GE healthcare) to remove any unreacted LDE. The volume of each aliquot was increased to 1 mL with the concentration at 2 mg/mL after this step.
(§4) Each of the control and LDE-treated proteome samples (˜2 mg protein/mL in 1 mL volume) was treated with 100 μM of IA-probe using 10 μL of a 10 mM stock in DMSO. The labeling reactions were incubated at room temperature for 1 hour. Click chemistry (acetylene-azide cycloaddition) was performed by the addition of 100 μM of either the Heavy-TEV-Tag (for the control sample) or Light-TEV-Tag (for the LDE-treated sample) (20 μL of a 5 mM stock), 1 mM TCEP (fresh 50× stock in water), 100 μM ligand (17× stock in DMSO:t-Butanol 1:4) and 1 mM CuSO4 (50× stock in water). Samples were allowed to react at room temperature for 1 hour. After the click chemistry step, the light and heavy-labeled samples were mixed together and centrifuged (5900×g, 4 min, 4° C.) to pellet the precipitated proteins.
(§5) The pellets were washed twice in cold MeOH, after which the pellet was solubilized in PBS containing 1.2% SDS via sonication and heating (5 min, 80° C.). Samples were subjected to streptavidin enrichment of probe-labeled proteins, sequential on-bead trypsin and TEV digestion, and liquid chromatography-mass spectrometry (LC-MS) analysis according to the published isoTOP-ABPP protocol^30.
(§6) IA-probe labeled peptides were identified by SEQUEST2 and DTASelect3, and the quantification of heavy/light ratios (isoTOP-ABPP ratios, R) was performed by an in-house software (CIMAGE) as previously described. […]

[2] = target: T2, WDR45L (Homo sapiens, UniProt Q5MNZ6); details: 100 μM LDE, 60 min; peptide C*NYLALVGGGK
T2 construct: directly in native proteomes; endogenous in cells; host or cells: MDA-MB-231
Description: as §1, §2, §3, §4, §5, §6

[3] = target: T3, CKAP4 (Homo sapiens, UniProt Q07065); details: 100 μM LDE, 60 min; peptide SSSSSSASAAAAAAAASSSASC*SR
T3 construct: directly in native proteomes; endogenous in cells; host or cells: MDA-MB-231
T3 sequence (Q07065 1-602): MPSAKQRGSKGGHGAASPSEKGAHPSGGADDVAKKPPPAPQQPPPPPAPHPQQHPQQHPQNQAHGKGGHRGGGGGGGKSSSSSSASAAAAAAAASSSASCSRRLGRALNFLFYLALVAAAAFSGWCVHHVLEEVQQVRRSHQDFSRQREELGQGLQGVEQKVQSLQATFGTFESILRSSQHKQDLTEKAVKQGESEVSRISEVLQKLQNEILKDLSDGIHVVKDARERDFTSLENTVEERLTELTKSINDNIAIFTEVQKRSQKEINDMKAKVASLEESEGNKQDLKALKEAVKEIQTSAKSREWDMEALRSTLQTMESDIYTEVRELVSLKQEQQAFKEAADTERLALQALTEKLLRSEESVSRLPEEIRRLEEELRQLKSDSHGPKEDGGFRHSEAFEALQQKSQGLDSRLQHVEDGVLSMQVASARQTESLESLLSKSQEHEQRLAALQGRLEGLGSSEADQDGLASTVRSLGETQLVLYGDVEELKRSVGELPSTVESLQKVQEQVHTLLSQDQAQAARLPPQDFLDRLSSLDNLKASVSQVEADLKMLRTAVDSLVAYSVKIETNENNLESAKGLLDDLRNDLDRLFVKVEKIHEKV
Description: as §1, §2, §3, §4, §5, §6

T2 sequence (Q5MNZ6 whole entry): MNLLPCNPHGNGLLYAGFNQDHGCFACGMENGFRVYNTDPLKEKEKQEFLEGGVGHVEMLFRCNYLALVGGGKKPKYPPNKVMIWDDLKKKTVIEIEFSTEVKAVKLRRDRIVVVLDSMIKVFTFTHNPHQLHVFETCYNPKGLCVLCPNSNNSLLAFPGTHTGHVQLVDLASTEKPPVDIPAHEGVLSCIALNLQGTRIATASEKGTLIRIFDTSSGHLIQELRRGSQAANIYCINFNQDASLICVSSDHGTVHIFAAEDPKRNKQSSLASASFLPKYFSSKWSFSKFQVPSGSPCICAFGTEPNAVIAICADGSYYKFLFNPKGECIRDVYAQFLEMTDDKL

Compound	R value (isoTOP-ABPP ratio heavy/light) for IA-labeled cysteine of CCT8 [1]	R value (isoTOP-ABPP ratio heavy/light) for IA-labeled cysteine of WDR45L [2]	R value (isoTOP-ABPP ratio heavy/light) for IA-labeled cysteine of CKAP4 [3]
CCCCCCCCCCCCC/C=C/C=O [2-HD, 2-trans-hexadecenal]	1.06	1.06	1.08
CCCCCC(O)/C=C/C=O (stereo not drawn) [4-HNE, 4-Hydroxynonenal]	1.14	3.34	7.73
CCCCC/C=C/C=C1/C(=O)C=C[C@@H]1C/C=C\CCCC(=O)O [PGJ2, 15-deoxy-Δ12,14-prostaglandin J2]	7.75	6.45	3.33
